Experimental data: the supplement of paper PMC10307832

Assays:
Assay in all cases: relative viability (nuclei count vs DMSO), 5 days (fraction); higher = more cells survive
[1] = tested on: LCLC-97TM1
How it was run: (§1)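 Cells from lung cancer lines were seeded into 1536-well plates and, one day later, dosed by pin tool. Treatments were either a single drug or a fixed dose of an anchor drug with five library-drug doses (not always all listed) in √10 steps. After 5 days, nuclei were stained in a one-step fixation (final 0.05% Triton X-100, 1% formaldehyde, 1 ug/ml Hoechst) and counted on 4× images, and relative viability is the treated-to-vehicle nuclei ratio, as the median of duplicate plates.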

[2] = tested on: NCI-H596
How it was run: as §1

[3] = tested on: LXF-289
How it was run: as §1

[4] = tested on: UMC-11
How it was run: as §1

[5] = tested on: HCC-15
How it was run: as §1

[6] = tested on: NCI-H2342
How it was run: as §1

[7] = tested on: NCI-H322M
How it was run: as §1

[8] = tested on: LU99A
How it was run: as §1

[9] = tested on: NCI-H650
How it was run: as §1

[10] = tested on: NCI-H1651
How it was run: as §1

[11] = tested on: HCC-78
How it was run: as §1

[12] = tested on: NCI-H1944
How it was run: as §1

[13] = tested on: LC-2-ad
How it was run: as §1

[14] = tested on: ChaGo-K-1
How it was run: as §1

[15] = tested on: SK-MES-1
How it was run: as §1

[16] = tested on: PC-3 [JPC-3]
How it was run: as §1

[17] = tested on: NCI-H1666
How it was run: as §1

[18] = tested on: LK-2
How it was run: as §1

[19] = tested on: NCI-H838
How it was run: as §1

[20] = tested on: NCI-H358
How it was run: as §1

[21] = tested on: NCI-H2087
How it was run: as §1

[22] = tested on: NCI-H661
How it was run: as §1

[23] = tested on: BEN
How it was run: as §1

NC(=O)Nc1cc(-c2cccc(F)c2)sc1C(=O)N[C@H]1CCCNC1 [AZD7762] + Cc1cc(Nc2cc(N3CCN(C)CC3)nc(Sc3ccc(NC(=O)C4CC4)cc3)n2)n[nH]1 [Tozasertib] (partner 0.1 µM)
relative viability ([1]; first compound 0.01 µM): 0.325
relative viability ([1]; first compound 0.03162 µM): 0.263
relative viability ([1]; first compound 0.1 µM): 0.225
relative viability ([1]; first compound 0.3162 µM): 0.398
relative viability ([1]; first compound 1 µM): 0.292
relative viability ([2]; first compound 0.01 µM): 0.978
relative viability ([2]; first compound 0.03162 µM): 0.83
relative viability ([2]; first compound 0.1 µM): 0.847
relative viability ([2]; first compound 0.3162 µM): 0.946
relative viability ([2]; first compound 1 µM): 0.793
relative viability ([3]; first compound 0.01 µM): 0.215
relative viability ([3]; first compound 0.03162 µM): 0.203
relative viability ([3]; first compound 0.1 µM): 0.196
relative viability ([3]; first compound 0.3162 µM): 0.174
relative viability ([3]; first compound 1 µM): 0.188
relative viability ([4]; first compound 0.01 µM): 0.191
relative viability ([4]; first compound 0.03162 µM): 0.216
relative viability ([4]; first compound 0.1 µM): 0.202
relative viability ([4]; first compound 0.3162 µM): 0.194
relative viability ([4]; first compound 1 µM): 0.191
relative viability ([5]; first compound 0.01 µM): 0.448
relative viability ([5]; first compound 0.03162 µM): 0.381
relative viability ([5]; first compound 0.1 µM): 0.511
relative viability ([5]; first compound 0.3162 µM): 0.432
relative viability ([5]; first compound 1 µM): 0.212
relative viability ([6]; first compound 0.01 µM): 0.489
relative viability ([6]; first compound 0.03162 µM): 0.501
relative viability ([6]; first compound 0.1 µM): 0.502
relative viability ([6]; first compound 0.3162 µM): 0.455
relative viability ([6]; first compound 1 µM): 0.487
relative viability ([7]; first compound 0.01 µM): 0.47
relative viability ([7]; first compound 0.03162 µM): 0.515
relative viability ([7]; first compound 0.1 µM): 0.514
relative viability ([7]; first compound 0.3162 µM): 0.307
relative viability ([7]; first compound 1 µM): 0.305
relative viability ([8]; first compound 0.01 µM): 0.318
relative viability ([8]; first compound 0.03162 µM): 0.279
relative viability ([8]; first compound 0.1 µM): 0.341
relative viability ([8]; first compound 0.3162 µM): 0.281
relative viability ([8]; first compound 1 µM): 0.218
relative viability ([9]; first compound 0.01 µM): 0.71
relative viability ([9]; first compound 0.03162 µM): 0.643
relative viability ([9]; first compound 0.1 µM): 0.709
relative viability ([9]; first compound 0.3162 µM): 0.704
relative viability ([9]; first compound 1 µM): 0.526
relative viability ([10]; first compound 0.01 µM): 0.788
relative viability ([10]; first compound 0.03162 µM): 0.769
relative viability ([10]; first compound 0.1 µM): 0.74
relative viability ([10]; first compound 0.3162 µM): 0.395
relative viability ([10]; first compound 1 µM): 0.191
relative viability ([11]; first compound 0.01 µM): 0.539
relative viability ([11]; first compound 0.03162 µM): 0.437
relative viability ([11]; first compound 0.1 µM): 0.515
relative viability ([11]; first compound 0.3162 µM): 0.44
relative viability ([11]; first compound 1 µM): 0.404
relative viability ([12]; first compound 0.01 µM): 0.253
relative viability ([12]; first compound 0.03162 µM): 0.257
relative viability ([12]; first compound 0.1 µM): 0.285
relative viability ([12]; first compound 0.3162 µM): 0.301
relative viability ([12]; first compound 1 µM): 0.248
relative viability ([13]; first compound 0.01 µM): 0.623
relative viability ([13]; first compound 0.03162 µM): 0.55
relative viability ([13]; first compound 0.1 µM): 0.449
relative viability ([13]; first compound 0.3162 µM): 0.463
relative viability ([13]; first compound 1 µM): 0.268
relative viability ([14]; first compound 0.01 µM): 0.215
relative viability ([14]; first compound 0.03162 µM): 0.224
relative viability ([14]; first compound 0.1 µM): 0.239
relative viability ([14]; first compound 0.3162 µM): 0.197
relative viability ([14]; first compound 1 µM): 0.227
relative viability ([15]; first compound 0.01 µM): 0.936
relative viability ([15]; first compound 0.03162 µM): 0.865
relative viability ([15]; first compound 0.1 µM): 0.798
relative viability ([15]; first compound 0.3162 µM): 0.262
relative viability ([15]; first compound 1 µM): 0.129
relative viability ([16]; first compound 0.01 µM): 0.859
relative viability ([16]; first compound 0.03162 µM): 0.891
relative viability ([16]; first compound 0.1 µM): 0.836
relative viability ([16]; first compound 0.3162 µM): 0.873
relative viability ([16]; first compound 1 µM): 0.85
relative viability ([17]; first compound 0.01 µM): 0.703
relative viability ([17]; first compound 0.03162 µM): 0.748
relative viability ([17]; first compound 0.1 µM): 0.68
relative viability ([17]; first compound 0.3162 µM): 0.724
relative viability ([17]; first compound 1 µM): 0.47
relative viability ([18]; first compound 0.01 µM): 0.194
relative viability ([18]; first compound 0.03162 µM): 0.186
relative viability ([18]; first compound 0.1 µM): 0.195
relative viability ([18]; first compound 0.3162 µM): 0.156
relative viability ([18]; first compound 1 µM): 0.165
relative viability ([19]; first compound 0.01 µM): 0.269
relative viability ([19]; first compound 0.03162 µM): 0.299
relative viability ([19]; first compound 0.1 µM): 0.244
relative viability ([19]; first compound 0.3162 µM): 0.187
relative viability ([19]; first compound 1 µM): 0.128
relative viability ([20]; first compound 0.01 µM): 0.0979
relative viability ([20]; first compound 0.03162 µM): 0.088
relative viability ([20]; first compound 0.1 µM): 0.109
relative viability ([20]; first compound 0.3162 µM): 0.0755
relative viability ([20]; first compound 1 µM): 0.0734
relative viability ([21]; first compound 0.01 µM): 0.24
relative viability ([21]; first compound 0.03162 µM): 0.266
relative viability ([21]; first compound 0.1 µM): 0.323
relative viability ([21]; first compound 0.3162 µM): 0.285
relative viability ([21]; first compound 1 µM): 0.232
relative viability ([22]; first compound 0.01 µM): 0.357
relative viability ([22]; first compound 0.03162 µM): 0.368
relative viability ([22]; first compound 0.1 µM): 0.372
relative viability ([22]; first compound 0.3162 µM): 0.432
relative viability ([22]; first compound 1 µM): 0.396
relative viability ([23]; first compound 0.01 µM): 0.521
relative viability ([23]; first compound 0.03162 µM): 0.465
relative viability ([23]; first compound 0.1 µM): 0.539
relative viability ([23]; first compound 0.3162 µM): 0.507
relative viability ([23]; first compound 1 µM): 0.486
